Results reported in patent US10329324B2 (viDA Therapeutics Inc., priority 2013, dated 2019).
pIC50: −log10 of the molar value. Where a name gives a salt, the structure may show the parent alone.

System: not listed separately
Experiment: Kinetic solubility determination in PBS
Assay type: physicochemical
Details: PBS 1X pH 7.4, 2.0% DMSO, 24 hour incubation at ambient temperature
Procedure: Kinetic solubility buffer (phosphate buffered saline (PBS, 1×) at pH 7.4) was prepared from PBS (10×) solution, (Fisher Scientific, Pittsburgh, Pa., USA, 10×), by adding PBS (50 mL, 10×) to approximately water (450 mL HPLC grade). The volume of the solution was then adjusted to 500 mL for a total dilution factor of 1:10 and a final PBS concentration of 1×. The pH of the final solution (PBS (1×)) was measured and found to be 7.4.
A DMSO stock solution (typically 10 mM or greater) was used for each compound to be tested. A final DMSO concentration of 2.0% and maximum theoretical compound concentration of typically 200 μM (or greater) was achieved by diluting an aliquot (6 μl) of each stock with kinetic solubility buffer (294 μl, PBS (1×) at pH 7.4) using a liquid handling system (Hamilton STARlet, Hamilton Robotics, Inc., Reno, Nev., USA) and incubated directly in a solubility filter plate (Millipore, Billerica, Mass., USA). Following 24 hour incubation at ambient temperature (20.5-21.7° C.), each sample was vacuum filtered. The filtrate was injected into the chemiluminescent nitrogen detector for quantification (Automated Discovery Workstation, Analiza, Inc., Cleveland, Ohio, USA). Each result was reported both in μM and μg/mL units. Three separate on-board performance indicating standards were assayed in triplicate with each test compound to ensure test results were within the acceptable range.
The equimolar nitrogen response of the detector was calibrated using standards which spanned the dynamic range of the instrument from 0.08 to 4500 μg/ml nitrogen. Each filtrate was quantified with respect to this calibration curve. Each calculated solubility value was corrected for background nitrogen present in the DMSO, and buffer used to prepare each sample. All reported values for samples containing adjacent nitrogen atoms in a ring structure were corrected for the expected non-equimolar response. Each calculated solubility result assumed that each sample was free of nitrogen containing impurities and was stable under the assay conditions. Analyses were performed at Analiza Inc. (Cleveland, Ohio, USA) by published methods (Bhattachar, S. N., et al, J. Pharma. BioMed Anal. 41:152-7 2006).

Solubility in aqueous PBS Buffer (1X, pH 7.4), uM | Solubility in aqueous PBS Buffer (1X, pH 7.4), ug/mL | Compound
4.2-4.9 uM | 2.6-3.0 ug/mL | CC[C@H](C)[C@H](NC(=O)Cc1csc2ccccc12)C(=O)N[C@H]1CCc2cccc3c2N(C1=O)[C@H](C(=O)NCc1c[nH]nn1)C3 [Willoughby 20, reference compound]

Same assay, conditions: phosphate buffered saline (PBS 1×), 21 °C, pH 7.4, aqueous buffer, kinetic from dmso stock, PBS 1X pH 7.4, 2.0% DMSO, 24 hour incubation at ambient temperature, read-out: Solubility in aqueous PBS Buffer (1X, pH 7.4)

solubility at 24 h [µM] | Compound
12.6 | CC[C@H](C)[C@H](NC(=O)Cc1ccccc1)C(=O)NCC(=O)N1c2ccccc2C[C@H]1C(=O)NCc1csnn1 [Example B2, (2S)-1-{2-[(2S,3S)-3-Methyl-2-(2-Phenylacetamido)Pentanamido]Acetyl}-N-(1,2,3-Thiadiazol-4-Ylmethyl)-2,3-Dihydro-1H-Indole-2-Carboxamide]

Same assay, conditions: phosphate buffered saline (PBS 1×), 21 °C, pH 7.4, aqueous buffer, kinetic from dmso stock, PBS 1X pH 7.4, 2.0% DMSO, 24 hour incubation at ambient temperature, read-out: Solubility in aqueous PBS Buffer (1X, pH 7.4), ug/mL

solubility at 24 h [µg/mL] | Compound
8.4 | CC[C@H](C)[C@H](NC(=O)Cc1ccccc1)C(=O)NCC(=O)N1c2ccccc2C[C@H]1C(=O)NCc1csnn1 [Example B2, (2S)-1-{2-[(2S,3S)-3-Methyl-2-(2-Phenylacetamido)Pentanamido]Acetyl}-N-(1,2,3-Thiadiazol-4-Ylmethyl)-2,3-Dihydro-1H-Indole-2-Carboxamide]

Target: T1, human Granzyme B (hGzmB) (Homo sapiens, UniProt P10144)
T1 construct: purchased Froelich Lab, Northshore University Health Systems Research Institute, Evanston, Ill., USA
T1 sequence (P10144 21-247): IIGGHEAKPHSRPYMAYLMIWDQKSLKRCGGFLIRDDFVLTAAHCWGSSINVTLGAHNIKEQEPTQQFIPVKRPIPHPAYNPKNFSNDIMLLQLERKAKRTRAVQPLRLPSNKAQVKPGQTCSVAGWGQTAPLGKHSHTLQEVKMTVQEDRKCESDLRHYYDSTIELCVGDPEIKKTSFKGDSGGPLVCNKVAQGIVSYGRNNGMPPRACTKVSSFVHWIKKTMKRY
Experiment: Human Granzyme B enzymatic inhibition assay (fluorogenic, kinetic)
Assay type: biochemical
Details: activity codes, Table 7; read-out: IC50 Activity Range
Procedure: A specific 2× assay buffer was prepared for the enzyme to be tested (see Table 2 for final 1× assay buffer compositions). If the assay buffer included DTT, it was added immediately prior to running the assay. A 2× enzyme mix was prepared (see Table 3 for enzyme assay conditions) at 80 uL per well. Compounds were screened at one or two appropriate concentrations (to determine the percent inhibition at those concentrations) and/or a full dose response curve (typically 8 points, to identify the IC50) in duplicate, triplicate, or higher replicates as needed. An appropriate control was also assessed in full dose response, in duplicate for each assay/plate. Background control wells consisted of 1× assay buffer, DMSO (5% v/v) and substrate. Positive control wells consisted of enzyme, DMSO (5% v/v) and substrate. Test compounds and control compounds were diluted in DMSO to […] the final desired concentration. For example, a test compound may be tested in dose response, in serial, tripling dilution condition starting at 20 uM and ending at 9.1 nM (or any appropriate concentration range and dilution scheme). Control compounds were prepared similarly. Diluted compounds were prepared in a dilution plate and transferred to the reaction plate (96-well medium binding plate (Greiner Bio-One FLUOTRAC™)) to allow for the desired final concentrations when added to the enzyme with AB. After mixing, the reaction plate was placed on a shaker (at 300 RPM) for 5 min, followed by incubation (covered) on the bench, for 20 min. Plates were warmed to reaction temperature (see Table 3) for a total incubation time of 30 min. Plates so prepared were ready for addition of substrate and the subsequent reaction.
(§1) An appropriate substrate for each assay was prepared in advance at 2× the final desired concentration (see Table 2) in DMSO. The appropriate substrate mix was added to each appropriate well on the reaction plate, and the plate was read immediately in the TECAN plate reader (TECAN INFINITE® M1000 Pro), set to the correct wavelength as needed for each assay (see Table 3) using 25 cycles, kinetic interval of 1 min, number of reads per well of 20 with shaking set to 1 s, double orbital, 2 mm amplitude. For fluorescent assays the gain was set to optimal (50%).
An in vitro fluorogenic detection assay for assessing the IC50 and/or percent inhibition at a given concentration of inhibitors against human Granzyme B (hGzmB) enzyme was performed as described in Example D1. When appropriate, percent inhibition data was collected and fitted to generate IC50 data using GraphPad Prism 5 (GraphPad Software, La Jolla Calif. USA, www.graphpad.com) and its non-linear regression analysis tools or other equivalent tools. […]
as §1, with “5)” for “2)”, “assay buffer. 30 uL of the” for “DMSO. The”, “6)” for “3)”, “15” for “25”, “(100% with gain regulation) for all assays except human GzmB which was set to 85 (with the z set at 23000 um).” for “(50%).”
An in vitro fluorogenic detection assay for assessing the IC50 and/or percent inhibition at a given concentration of inhibitors against human Granzyme B (hGzmB) enzyme was performed as described in Example D5. When appropriate, percent inhibition data was collected and fitted to generate IC50 data using GraphPad Prism 5 (GraphPad Software, La Jolla Calif. USA, www.graphpad.com) and its non-linear regression analysis tools or other equivalent tools.

Compound | pIC50
CC(C)(F)C(NC(=O)Cc1ccccc1)C(=O)NCC(=O)N1c2ccccc2C[C@H]1C(=O)NCc1nn[nH]n1 (mixture of isomers) [Example A41, (2S)-1-{2-[3-Fluoro-3-Methyl-2-(2-Phenylacetamido)Butanamido]Acetyl}-N-(2H-1,2,3,4-Tetrazol-5-Ylmethyl)-2,3-Dihydro-1H-Indole-2-Carboxamide] | < 5.00
CC[C@H](C)[C@H](NC(=O)Cc1ccccc1)C(=O)NCC(=O)N1c2ccccc2CCC1C(=O)NCc1c[nH]nn1 (mixture of isomers) [Example B5, (2S)-1-{2-[(2S,3S)-3-Methyl-2-(2-Phenylacetamido)Pentanamido]Acetyl}-N-(1H-1,2,3-Triazol-4-Ylmethyl)-1,2,3,4-Tetrahydroquinoline-2-Carboxamide] | 5.00 to 6.00
CC[C@H](C)[C@H](NC(=O)Cc1ccccc1)C(=O)NCC(=O)N1c2ccc(C)cc2CC1C(=O)NCc1c[nH]nn1 (mixture of isomers) [Example B7, 5-Methyl-1-{2-[(2S,3S)-3-Methyl-2-(2-Phenylacetamido)Pentanamido]Acetyl}-N-(1H-1,2,3-Triazol-4-Ylmethyl)-2,3-Dihydro-1H-Indole-2-Carboxamide] | 6.00 to 7.00
CC[C@H](C)[C@H](NC(=O)Cc1cccc(N)c1)C(=O)NCC(=O)N1c2ccccc2C[C@H]1C(=O)NCc1nn[nH]n1 [Example A9, (2S)-1-{2-[(2S,3S)-2-[2-(3-Aminophenyl)Acetamido]-3-Methylpentanamido]Acetyl}-N-(2H-1,2,3,4-Tetrazol-5-Ylmethyl)-2,3-Dihydro-1H-Indole-2-Carboxamide Hydrochloride] | 6.00 to 7.00
O=C(Cc1ccccc1)N[C@H](C(=O)NCC(=O)N1c2ccccc2C[C@H]1C(=O)NCc1nn[nH]n1)C1CCCCC1 [Example A11, (2S)-1-{2-[(2S)-2-Cyclohexyl-2-(2-Phenylacetamido)Acetamido]Acetyl}-N-(2H-1,2,3,4-Tetrazol-5-Ylmethyl)-2,3-Dihydro-1H-Indole-2-Carboxamide] | 5.00 to 6.00
CC[C@H](C)[C@H](NC(=O)[C@H](C)CC(=O)OC)C(=O)NCC(=O)N1c2ccccc2C[C@H]1C(=O)NCc1nn[nH]n1 [Example A29, Methyl (3R)-3-Methyl-3-{[(1S,2S)-2-Methyl-1-({2-Oxo-2-[(2S)-2-[(2H-1,2,3,4-Tetrazol-5-Ylmethyl)Carbamoyl]-2,3-Dihydro-1H-Indol-1-Yl]Ethyl}Carbamoyl)Butyl]Carbamoyl}Propanoate] | 6.00 to 7.00
CC[C@H](C)[C@H](NC(=O)/C=C/C(=O)O)C(=O)NCC(=O)N1c2ccccc2C[C@H]1C(=O)NCc1nn[nH]n1 [Example A36, (2E)-3-{[(1S,2S)-2-Methyl-1-({2-Oxo-2-[(2S)-2-[(2H-1,2,3,4-Tetrazol-5-Ylmethyl)Carbamoyl]-2,3-Dihydro-1H-Indol-1-Yl]Ethyl}Carbamoyl)Butyl]Carbamoyl}Prop-2-Enoic Acid] | > 7.00

Continued, values first:

pIC50 | Compound
> 7.00 | CC[C@H](C)[C@H](NC(=O)C1CCCC1C(=O)O)C(=O)NCC(=O)N1c2ccccc2C[C@H]1C(=O)NCc1nn[nH]n1 (single isomer, unassigned) [Example A57-1]
> 7.00 | CC[C@H](C)[C@H](NC(=O)C1CCCC1C(=O)O)C(=O)NCC(=O)N1c2ccccc2C[C@H]1C(=O)NCc1nn[nH]n1 (single isomer, unassigned) [Example A57-2]
> 7.00 | CC[C@H](C)[C@H](NC(=O)CCCCC(=O)O)C(=O)NCC(=O)N1c2ccccc2C[C@H]1C(=O)NCc1nn[nH]n1 [Example A5, 5-{[(1S,2S)-2-Methyl-1-({2-Oxo-2-[(2S)-2-[(2H-1,2,3,4-Tetrazol-5-Ylmethyl)Carbamoyl]-2,3-Dihydro-1H-Indol-1-Yl]Ethyl}Carbamoyl)Butyl]Carbamoyl}Pentanoic Acid]
> 7.00 | CC[C@H](C)[C@H](NC(=O)CC(C)CC(=O)O)C(=O)NCC(=O)N1c2ccccc2C[C@H]1C(=O)NCc1nn[nH]n1 (stereo partly drawn) [Example A17, 3-Methyl-4-{[(1S,2S)-2-Methyl-1-({2-Oxo-2-[(2S)-2-[(2H-1,2,3,4-Tetrazol-5-Ylmethyl)Carbamoyl]-2,3-Dihydro-1H-Indol-1-Yl]Ethyl}Carbamoyl)Butyl]Carbamoyl}Butanoic Acid]
> 7.00 | CC[C@H](C)[C@H](NC(=O)C1=C(C(=O)O)CCCC1)C(=O)NCC(=O)N1c2ccccc2C[C@H]1C(=O)NCc1nn[nH]n1 [Example A31]
> 7.00 | CC[C@H](C)[C@H](NC(=O)[C@@H](O)[C@H](O)C(=O)O)C(=O)NCC(=O)N1c2ccccc2C[C@H]1C(=O)NCc1nn[nH]n1 [Example A33, (2S,3S)-2,3-Dihydroxy-3-{[(1S,2S)-2-Methyl-1-({2-Oxo-2-[(2S)-2-[(2H-1,2,3,4-Tetrazol-5-Ylmethyl)Carbamoyl]-2,3-Dihydro-1H-Indol-1-Yl]Ethyl}Carbamoyl)Butyl]Carbamoyl}Propanoic Acid]
> 7.00 | CC[C@H](C)[C@H](NC(=O)Cc1cccc(CC(=O)O)c1)C(=O)NCC(=O)N1c2ccccc2C[C@H]1C(=O)NCc1nn[nH]n1 [Example A35, 2-[3-({[(1S,2S)-2-Methyl-1-({2-Oxo-2-[(2S)-2-[(2H-1,2,3,4-Tetrazol-5-Ylmethyl)Carbamoyl]-2,3-Dihydro-1H-Indol-1-Yl]Ethyl}Carbamoyl)Butyl]Carbamoyl}Methyl)Phenyl]Acetic Acid]
